According to article PMC8391312 (Biomedicines, 2021):

Design: species or system BALB/cAnNHsd mice
Settings: mouse, in vivo, ip

## insulin: recombinant insulin (Humalog, Eli-Lilly), positive control in glucose tolerance test
  blood glucose levels compared to the PBS and s-cal14.2b groups 30 min after administration: significantly lower
  change of blood glucose levels compared to the PBS control group after five minutes: did not significantly change
